Source: patent US11020367B2, “Method for preparing medicine with dicaffeoylquinic acid for treating gout” (Huazhong Agricultural University, priority 2019, dated 2021)
Marks after values point to notes of the source that are not given here.

Experiments:
THP-1 cells = test: IL-1β secretion in THP-1 cells stimulated by lipopolysaccharide and sodium urate (gout inflammation model, ELISA); type: cell-based; settings: 100 μmol/L compound pre-incubated 12 h, then lipopolysaccharide 1 μg/mL 2 h and sodium urate 200 μg/mL 4 h; PMA-differentiated THP-1; model group 8747.09 ± 975.97, control group 214.83 ± 11.92
Method: THP-1 suspension cells were inoculated into a 24-well plate. When the density reached 80%, a phorbol ester (PMA) solution with a final concentration of 100 ng/mL was added. After 12 hours of PMA treatment, THP-1 cells differentiated into adherent macrophages. Culture medium was aspirated before washing the cells with PBS, completely replacing the culture medium to culture for 12 h before carrying out a dosing treatment. One hundred μmol/L of the above identified monomer compounds were pre-incubated for 12 h, then lipopolysaccharide with a final concentration of 1 μg/mL was added and acted for 2 h, and finally a sodium urate solution with a final concentration of 200 μg/mL was added and acted for 4 h. […] The model group was pre-incubated without drugs, and cells were stimulated with lipopolysaccharide and sodium urate. Finally, the cell supernatant was collected, centrifuged, and IL-1β content in the supernatant was measured by using an ELISA kit.

XOD (xanthine oxidase) = XOD (xanthine oxidase) (Homo sapiens, UniProt P47989); test: Inhibition of XOD enzyme activity (absorbance at 295 nm, xanthine substrate); type: biochemical; settings: XOD 0.02 U/mL, xanthine 1 mmol/L, 37° C.; read-out: IC50 in inhibiting XOD
Chain of XOD (xanthine oxidase) (P47989 whole entry, species assumed): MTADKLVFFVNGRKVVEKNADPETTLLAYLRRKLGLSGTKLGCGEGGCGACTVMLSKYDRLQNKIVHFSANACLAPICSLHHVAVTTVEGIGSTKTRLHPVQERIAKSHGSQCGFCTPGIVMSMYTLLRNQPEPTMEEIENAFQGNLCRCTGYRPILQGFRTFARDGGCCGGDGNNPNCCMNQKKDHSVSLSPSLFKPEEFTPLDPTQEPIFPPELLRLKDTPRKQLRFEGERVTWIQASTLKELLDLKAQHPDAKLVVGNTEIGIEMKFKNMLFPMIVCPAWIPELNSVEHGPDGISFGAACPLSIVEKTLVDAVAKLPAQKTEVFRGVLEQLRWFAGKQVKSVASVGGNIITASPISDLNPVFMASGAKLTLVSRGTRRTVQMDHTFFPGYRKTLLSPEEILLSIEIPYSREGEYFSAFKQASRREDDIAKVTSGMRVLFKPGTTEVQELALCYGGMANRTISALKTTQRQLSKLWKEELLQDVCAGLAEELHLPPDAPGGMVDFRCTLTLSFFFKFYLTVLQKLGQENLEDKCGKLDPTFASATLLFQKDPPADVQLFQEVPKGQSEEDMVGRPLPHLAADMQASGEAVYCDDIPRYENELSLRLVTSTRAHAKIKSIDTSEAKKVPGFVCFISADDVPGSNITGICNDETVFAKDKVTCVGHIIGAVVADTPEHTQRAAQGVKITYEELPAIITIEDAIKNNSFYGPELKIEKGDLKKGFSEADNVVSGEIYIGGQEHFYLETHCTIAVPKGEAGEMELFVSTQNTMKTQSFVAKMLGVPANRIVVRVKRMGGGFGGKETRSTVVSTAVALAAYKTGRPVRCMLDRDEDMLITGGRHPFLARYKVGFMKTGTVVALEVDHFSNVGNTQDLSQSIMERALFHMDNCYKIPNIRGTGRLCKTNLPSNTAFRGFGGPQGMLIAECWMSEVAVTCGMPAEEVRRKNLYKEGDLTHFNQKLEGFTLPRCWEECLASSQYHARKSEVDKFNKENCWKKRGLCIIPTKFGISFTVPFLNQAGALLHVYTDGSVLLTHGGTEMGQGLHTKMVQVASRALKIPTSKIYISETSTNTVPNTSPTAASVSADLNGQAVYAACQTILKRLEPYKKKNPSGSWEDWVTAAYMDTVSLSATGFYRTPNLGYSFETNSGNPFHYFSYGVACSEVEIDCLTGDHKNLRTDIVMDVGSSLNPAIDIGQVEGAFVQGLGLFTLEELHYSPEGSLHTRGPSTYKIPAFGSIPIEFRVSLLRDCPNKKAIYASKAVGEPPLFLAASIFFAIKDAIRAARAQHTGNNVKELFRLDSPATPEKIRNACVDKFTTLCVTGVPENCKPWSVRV
Method: Forty μL of xanthine solution (1 mmol/L) was added with a spray gun to measure absorbance every 20 s for 15 times.

Row | SMILES | IC50 (XOD (xanthine oxidase)) [µM] | IL-1β in cell supernatant (THP-1 cells)
1 | O=C(C=Cc1ccc(O)c(O)c1)OC1C(O)CC(OC(=O)C=Cc2ccc(O)c(O)c2)(C(=O)O)CC1O (stereo not shown) [1,4-diCQA, 1,4-dicaffeoylquinic acid] | 7.36 ± 0.63 | 4647.67 ± 607.03^bc pg/mL
2 | O=C(C=Cc1ccc(O)c(O)c1)OC1CC(O)(C(=O)O)CC(O)C1OC(=O)C=Cc1ccc(O)c(O)c1 (stereo not shown) [3,4-diCQA, 3,4-dicaffeoylquinic acid] | 260 ± 18.4 | 7088.57 ± 621.91^d pg/mL

The next lines start with results.

Row | IC50 (XOD (xanthine oxidase)) [µM] | SMILES | IL-1β in cell supernatant (THP-1 cells)
3 | 122 ± 2.56 | O=C(C=Cc1ccc(O)c(O)c1)OC1CC(OC(=O)C=Cc2ccc(O)c(O)c2)(C(=O)O)CC(O)C1O (stereo not shown) [1,5-diCQA, 1,5-dicaffeoylquinic acid] | 4176.74 ± 1214.41^b pg/mL
4 | 233 ± 10.9 | O=C(C=Cc1ccc(O)c(O)c1)OC1CC(O)(C(=O)O)CC(O)C1OC(=O)C=Cc1ccc(O)c(O)c1 (stereo not shown) [4,5-diCQA, 4,5-dicaffeoylquinic acid] | 5572.09 ± 632.81^c pg/mL
5 | 289 ± 21.8 | O=C(C=Cc1ccc(O)c(O)c1)OC1CC(O)(C(=O)O)CC(OC(=O)C=Cc2ccc(O)c(O)c2)C1O (stereo not shown) [3,5-diCQA, 3,5-dicaffeoylquinic acid] | 8850.00 ± 190.20^e pg/mL
